Assay results published in patent US4499106A, “Lipolytic composition and method of treating obesity” (Boehringer Ingelheim KG, priority 1983, dated 1985).
“Also recorded” adds a separate entry of the source.

Assays:
[1] = system: unesterified fatty acids in the blood plasma; assay: Metabolic effects in blood plasma of fed rats: unesterified fatty acids; assay type: in vivo, rat; conditions: for Unesterified Fatty Acids Δ%: blood plasma
From the text: (§9) Metabolic effects in the blood plasma of fed rats.
(§10) μmol/l (unesterified fatty acids) and mmol/l (lactate).
(§11) Averages ± S.E.M. N of the treated groups = 5-6.

[2] = system: lactate in the blood plasma; assay: Metabolic effects in blood plasma of fed rats: lactate; assay type: in vivo, rat; conditions: for Lactate Δ%: blood plasma; for lactacidemia compared with Me 693: vs Me 693, in words
From the text: as §9, §10, §11

[3] = system: unesterified fatty acids in the blood; assay: Unesterified fatty acids, conscious rat (maximum percentage change vs control); assay type: in vivo
From the text: (§1) If the effects on the heart (heart rate), circulation (diastolic blood pressure, peripheral vasodilation) and bronchi, on the one hand, and the increase in the unesterified fatty acids in the blood after the administration of Me 693, on the other hand, are compared with the effects of isoprenaline and fenoterol, it is clear that the cardiovascular and bronchospasmolytic effects are much greater after administration of the comparison substances than with the Me 693, whereas the reverse is true of the lipolytic effects.
(§2) Metabolic and cardiovascular effects and bronchospasmolytic effects of Me
(§3) isoprenaline and fenoterol in animals of various types. The table gives
(§4) maximum percentage changes compared with control values.

[4] = system: heart (heart rate); assay: Heart rate, anesthetized dog (maximum percentage change vs control); assay type: in vivo; conditions: for Heart Rate Δ%: maximum change; for cardiovascular effects compared with Me 693: vs Me 693, in words
From the text: as §1, §2, §3, §4

[5] = system: circulation (diastolic blood pressure); assay: Diastolic blood pressure, anesthetized dog (maximum percentage change vs control); assay type: in vivo
From the text: as §1, §2, §3, §4

[6] = system: circulation (peripheral vasodilation); assay: Peripheral vasodilation, anesthetized dog (maximum percentage change vs control); assay type: in vivo
From the text: as §1, §2, §3, §4

[7] = system: bronchi (ACh spasm); assay: Bronchospasmolysis, anesthetized guinea pig (inhibition of ACh spasm); assay type: in vivo; conditions: for bronchospasmolytic effects compared with Me 693: vs Me 693, in words
From the text: as §1, §2, §3, §4

[8] = system: unesterified fatty acids in the blood; assay: Metabolic effects of oral administration to three conscious dogs (unesterified fatty acids, triglycerides, lactate); assay type: in vivo, dog; conditions: for Triglycerides Δ% / Unesterified Fatty Acids Δ%: maximum change
Experimental: (§5) A dose of only 0.1 mg/kg of Me 693 gives virtually a 100% increase in the unesterified fatty acids in the blood while the heart rate and the diastolic blood pressure are unaffected.
(§6) Metabolic and cardiovascular effects of Me 693 administered
(§7) orally to three conscious dogs. The table gives the maximum
(§8) percentage changes compared with the control values.

[9] = system: heart rate and diastolic blood pressure; assay: Cardiovascular effects of oral administration to three conscious dogs (heart rate, diastolic blood pressure); assay type: in vivo, dog; conditions: for Diastolic Blood Pressure Δ% / Heart Rate Δ%: maximum change
Experimental: as §5, §6, §7, §8

[10] = system: metabolism (development and release of heat); assay: Calorimetric effects after intravenous administration to rabbits; assay type: in vivo, rabbit; conditions: 0.5 mg/kg intravenously
[11] = system: lipolysis and glycogenolysis; assay: Summary of animal experiments: lipolytic and glycogenolytic (lactate) activity; assay type: in vivo; conditions: in words
From the text: To summarize, the animal experiments with Me 693 have given the following results: […]

CC(COc1ccccc1)NCC(O)c1ccc(O)c(NS(=O)(=O)N(C)C)c1 (stereo not shown) [Me 693, 1-(4-hydroxy-3-dimethylamino-sulfonamidophenyl)-1-hydroxy-2-(1-phenoxy-isopropylamino)ethane]
Unesterified Fatty Acids Δ% ([1]; 0.1 mg/kg s.c.): +34% | Unesterified Fatty Acids Δ% ([1]; 1 mg/kg oral): +63% | Unesterified Fatty Acids Δ% ([1]; 1.0 mg/kg s.c.): +190% | increase in unesterified fatty acids in the blood vs comparison substances ([1]; identical dosage, vs isoprenaline and fenoterol, in words): much higher increase | Lactate Δ% ([2]; 0.1 mg/kg s.c.): 0% | Lactate Δ% ([2]; 1.0 mg/kg s.c.): +34% | Unesterified Fatty Acids Δ% ([3]; 0.1 mg/kg s.c.): +34% | Unesterified Fatty Acids Δ% ([3]; 1.0 mg/kg s.c.): +190% | Heart Rate Δ% ([4]; 10 μg/kg i.v.): +8% | Heart Rate Δ% ([4]; 20 μg/kg i.v.): +5% | Diastolic Blood Pressure Δ% ([5]; 10 μg/kg i.v.): -24% | Diastolic Blood Pressure Δ% ([5]; 20 μg/kg i.v.): -23% | Peripheral Vasodilation Δ% ([6]; 10 μg/kg i.a.): -14% | Peripheral Vasodilation Δ% ([6]; 30 μg/kg i.a.): -15% | Bronchospasmolysis, % Inhibition of ACh spasm ([7]; 100 μg/kg i.v.): 0-2% | Triglycerides Δ% ([8]; 0.1 mg/kg oral): +18% | Triglycerides Δ% ([8]; 0.3 mg/kg oral): +10% | Unesterified Fatty Acids Δ% ([8]; 0.3 mg/kg oral): +95% | Triglycerides Δ% ([8]; 1.0 mg/kg oral): +37% | Unesterified Fatty Acids Δ% ([8]; 1.0 mg/kg oral): +112% | unesterified fatty acids (in words) ([8]; 0.3 and 1 mg/kg oral): increased still further to a high level | heart rate and diastolic blood pressure (in words) ([9]; 0.1 mg/kg oral): unaffected | Diastolic Blood Pressure Δ% ([9]; 0.1 mg/kg oral): 0% | Heart Rate Δ% ([9]; 0.1 mg/kg oral): 0% | Diastolic Blood Pressure Δ% ([9]; 0.3 mg/kg oral): -15% | Heart Rate Δ% ([9]; 0.3 mg/kg oral): +36% | Diastolic Blood Pressure Δ% ([9]; 1.0 mg/kg oral): -26% | Heart Rate Δ% ([9]; 1.0 mg/kg oral): +95% | blood pressure (in words) ([9]; 0.3 and 1 mg/kg oral): reductions in blood pressure | heart rate (in words) ([9]; 0.3 and 1 mg/kg oral): dose-dependent increases in heart rate | core temperatures [10]: higher core temperatures | development and release of heat [10]: increased significantly | heart rate and ear temperature [10]: slight increase in heart rate and ear temperature | oxygen consumption [10]: increased oxygen consumption | respiratory quotient [10]: reduction in the respiratory quotient | differentiation between lipolytic and glycogenolytic activities ([11]; animal experiments): Extreme differentiation between the lipolytic and glycogenolytic activities | glycogenolytic effect ([11]; animal experiments): virtually negligible glycogenolytic activity; also recorded: does not have the glycogenolytic effect | lipolytic effect ([11]; animal experiments): Strong lipolytic activity; also recorded: particularly long-lasting selective lipolytic effect | blood lactate [11]: no changes are observed in blood lactate

CC(C)NCC(O)c1ccc(O)c(O)c1 (stereo not shown) [Isoprenaline, isoprenaline]
Unesterified Fatty Acids Δ% ([1]; 0.1 mg/kg s.c.): +15% | Unesterified Fatty Acids Δ% ([1]; 1.0 mg/kg s.c.): +27% | Lactate Δ% ([2]; 0.1 mg/kg s.c.): +112% | Lactate Δ% ([2]; 1.0 mg/kg s.c.): +148% | lactacidemia compared with Me 693 [2]: significantly greater | Unesterified Fatty Acids Δ% ([3]; 0.1 mg/kg s.c.): +15% | Unesterified Fatty Acids Δ% ([3]; 1.0 mg/kg s.c.): +27% | Heart Rate Δ% ([4]; 0.1 μg/kg i.v.): +18% | Heart Rate Δ% ([4]; 1 μg/kg i.v.): +37% | Heart Rate Δ% ([4]; 10 μg/kg i.v.): +56% | cardiovascular effects compared with Me 693 [4]: much greater | Diastolic Blood Pressure Δ% ([5]; 0.1 μg/kg i.v.): -40% | Diastolic Blood Pressure Δ% ([5]; 1 μg/kg i.v.): -62% | Diastolic Blood Pressure Δ% ([5]; 10 μg/kg i.v.): -71% | Peripheral Vasodilation Δ% ([6]; 0.001 μg/kg i.a. (so in the source)): -28% | Peripheral Vasodilation Δ% ([6]; 0.003 μg/kg i.a.): -24% | Peripheral Vasodilation Δ% ([6]; 0.03 μg/kg i.a.): -33% | Bronchospasmolysis, % Inhibition of ACh spasm ([7]; 10 μg/kg i.v.): 76-94% | bronchospasmolytic effects compared with Me 693 [7]: much greater

CC(Cc1ccc(O)cc1)NCC(O)c1cc(O)cc(O)c1 (stereo not shown) [Fenoterol, fenoterol]
Unesterified Fatty Acids Δ% ([1]; 0.1 mg/kg s.c.): +18% | Unesterified Fatty Acids Δ% ([1]; 1.0 mg/kg s.c.): +30% | Lactate Δ% ([2]; 0.1 mg/kg s.c.): +33% | Lactate Δ% ([2]; 1.0 mg/kg s.c.): +109% | lactacidemia compared with Me 693 [2]: significantly greater | Unesterified Fatty Acids Δ% ([3]; 0.1 mg/kg s.c.): +18% | Unesterified Fatty Acids Δ% ([3]; 1.0 mg/kg s.c.): +30% | Heart Rate Δ% ([4]; 0.1 μg/kg i.v.): +3% | Heart Rate Δ% ([4]; 1 μg/kg i.v.): +27% | Heart Rate Δ% ([4]; 10 μg/kg i.v.): +50% | cardiovascular effects compared with Me 693 [4]: much greater | Diastolic Blood Pressure Δ% ([5]; 0.1 μg/kg i.v.): -13% | Diastolic Blood Pressure Δ% ([5]; 1 μg/kg i.v.): -33% | Diastolic Blood Pressure Δ% ([5]; 10 μg/kg i.v.): -54% | Peripheral Vasodilation Δ% ([6]; 1 μg/kg i.a.): -20% | Peripheral Vasodilation Δ% ([6]; 3 μg/kg i.a.): -28% | Bronchospasmolysis, % Inhibition of ACh spasm ([7]; 10 μg/kg i.v.): 67-100% | bronchospasmolytic effects compared with Me 693 [7]: much greater
